Data reported in publication doi:10.1101/2023.11.24.568596v1 (biorxiv, 2023).
Each block holds one compound with its values, some of them ahead of it.

Columns and labels:
Conditions in all cases: binder
[1] = biological target: T1, DRAK2 (Homo sapiens, UniProt O94768)
T1 sequence (O94768 1-372): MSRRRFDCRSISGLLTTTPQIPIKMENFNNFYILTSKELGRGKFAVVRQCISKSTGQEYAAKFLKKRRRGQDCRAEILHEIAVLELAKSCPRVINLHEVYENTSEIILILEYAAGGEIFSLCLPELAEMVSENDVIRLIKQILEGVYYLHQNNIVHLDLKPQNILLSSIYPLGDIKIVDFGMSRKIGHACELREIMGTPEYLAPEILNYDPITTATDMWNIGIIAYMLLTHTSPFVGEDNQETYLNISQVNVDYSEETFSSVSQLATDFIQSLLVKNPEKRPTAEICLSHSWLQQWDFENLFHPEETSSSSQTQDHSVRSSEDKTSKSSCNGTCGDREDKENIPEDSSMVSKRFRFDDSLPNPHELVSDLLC

[2] = biological target: T2, MAP2K4 (Homo sapiens, UniProt P45985)
T2 sequence (P45985 1-399): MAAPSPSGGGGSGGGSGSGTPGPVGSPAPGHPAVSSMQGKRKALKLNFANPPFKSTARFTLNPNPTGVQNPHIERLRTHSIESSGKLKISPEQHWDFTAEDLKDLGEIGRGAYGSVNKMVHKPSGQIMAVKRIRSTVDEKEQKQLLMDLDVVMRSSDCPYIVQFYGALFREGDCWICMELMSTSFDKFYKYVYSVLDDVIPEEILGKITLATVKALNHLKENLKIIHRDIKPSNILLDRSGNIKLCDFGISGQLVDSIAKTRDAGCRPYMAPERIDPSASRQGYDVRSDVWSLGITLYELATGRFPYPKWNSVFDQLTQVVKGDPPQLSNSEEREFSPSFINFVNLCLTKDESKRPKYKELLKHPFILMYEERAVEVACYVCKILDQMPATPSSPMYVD

[3] = biological target: T3, GAK (Homo sapiens, UniProt O14976)
T3 sequence (O14976 1-1311): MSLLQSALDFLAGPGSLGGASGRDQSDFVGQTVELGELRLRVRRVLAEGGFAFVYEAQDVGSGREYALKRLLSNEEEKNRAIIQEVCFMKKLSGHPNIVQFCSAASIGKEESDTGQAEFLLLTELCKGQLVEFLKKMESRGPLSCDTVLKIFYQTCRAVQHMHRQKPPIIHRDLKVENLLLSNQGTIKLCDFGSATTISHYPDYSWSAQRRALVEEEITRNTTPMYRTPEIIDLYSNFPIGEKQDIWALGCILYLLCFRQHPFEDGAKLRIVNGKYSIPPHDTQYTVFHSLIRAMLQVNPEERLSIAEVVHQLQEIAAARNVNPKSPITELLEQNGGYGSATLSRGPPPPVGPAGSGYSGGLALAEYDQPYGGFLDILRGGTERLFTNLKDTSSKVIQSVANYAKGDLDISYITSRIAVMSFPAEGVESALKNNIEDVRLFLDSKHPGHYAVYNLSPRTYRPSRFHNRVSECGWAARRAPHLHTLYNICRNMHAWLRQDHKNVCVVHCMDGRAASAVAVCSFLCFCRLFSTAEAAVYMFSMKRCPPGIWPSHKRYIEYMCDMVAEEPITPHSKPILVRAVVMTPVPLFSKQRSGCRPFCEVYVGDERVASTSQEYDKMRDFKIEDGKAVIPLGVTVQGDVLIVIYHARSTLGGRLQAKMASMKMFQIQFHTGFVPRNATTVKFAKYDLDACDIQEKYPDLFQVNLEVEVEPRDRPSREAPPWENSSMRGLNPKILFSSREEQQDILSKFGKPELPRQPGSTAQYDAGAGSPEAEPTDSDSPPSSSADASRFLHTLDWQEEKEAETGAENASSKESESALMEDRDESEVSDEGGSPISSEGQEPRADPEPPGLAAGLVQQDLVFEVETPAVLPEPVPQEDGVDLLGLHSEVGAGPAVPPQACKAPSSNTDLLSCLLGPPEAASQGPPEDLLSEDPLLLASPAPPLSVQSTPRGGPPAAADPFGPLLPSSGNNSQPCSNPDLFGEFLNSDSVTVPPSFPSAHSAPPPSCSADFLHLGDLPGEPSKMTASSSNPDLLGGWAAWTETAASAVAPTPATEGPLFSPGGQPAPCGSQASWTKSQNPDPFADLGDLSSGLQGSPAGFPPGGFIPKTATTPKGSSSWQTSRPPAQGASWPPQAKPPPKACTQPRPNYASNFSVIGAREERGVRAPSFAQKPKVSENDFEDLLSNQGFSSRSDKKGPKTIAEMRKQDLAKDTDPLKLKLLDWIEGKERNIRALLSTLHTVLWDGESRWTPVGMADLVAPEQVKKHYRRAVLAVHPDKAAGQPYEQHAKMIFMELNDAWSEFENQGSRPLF

[4] = biological target: T4, PHKG2 (Homo sapiens, UniProt P15735)
T4 sequence (P15735 1-406): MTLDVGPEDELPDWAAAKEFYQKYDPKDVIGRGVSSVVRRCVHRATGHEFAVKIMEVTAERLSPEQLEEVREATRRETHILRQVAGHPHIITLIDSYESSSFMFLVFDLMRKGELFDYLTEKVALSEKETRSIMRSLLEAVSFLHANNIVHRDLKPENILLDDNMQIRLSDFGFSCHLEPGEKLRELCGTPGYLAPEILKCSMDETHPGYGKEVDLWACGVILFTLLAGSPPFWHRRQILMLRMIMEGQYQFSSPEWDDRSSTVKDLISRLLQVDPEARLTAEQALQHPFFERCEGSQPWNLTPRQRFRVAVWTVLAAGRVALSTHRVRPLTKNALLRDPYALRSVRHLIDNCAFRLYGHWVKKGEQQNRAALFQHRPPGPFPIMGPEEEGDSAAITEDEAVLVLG

[5] = biological target: AKT3 (Homo sapiens, UniProt Q9Y243)
Sequence of AKT3 (Q9Y243 whole entry): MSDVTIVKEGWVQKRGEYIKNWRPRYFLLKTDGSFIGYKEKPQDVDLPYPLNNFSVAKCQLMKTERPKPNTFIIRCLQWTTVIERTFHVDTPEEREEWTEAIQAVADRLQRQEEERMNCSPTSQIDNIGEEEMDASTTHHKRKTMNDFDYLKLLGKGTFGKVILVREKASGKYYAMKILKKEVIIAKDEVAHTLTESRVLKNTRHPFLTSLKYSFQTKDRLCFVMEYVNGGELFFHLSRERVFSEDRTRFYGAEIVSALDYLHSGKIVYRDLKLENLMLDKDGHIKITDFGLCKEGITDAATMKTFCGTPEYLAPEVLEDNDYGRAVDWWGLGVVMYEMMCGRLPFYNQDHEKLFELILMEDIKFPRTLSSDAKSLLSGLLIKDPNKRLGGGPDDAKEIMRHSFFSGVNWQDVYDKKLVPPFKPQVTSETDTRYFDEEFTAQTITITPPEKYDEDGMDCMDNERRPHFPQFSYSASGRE

[6] = biological target: MARK3 (Homo sapiens, UniProt P27448)
Sequence of MARK3 (P27448 whole entry): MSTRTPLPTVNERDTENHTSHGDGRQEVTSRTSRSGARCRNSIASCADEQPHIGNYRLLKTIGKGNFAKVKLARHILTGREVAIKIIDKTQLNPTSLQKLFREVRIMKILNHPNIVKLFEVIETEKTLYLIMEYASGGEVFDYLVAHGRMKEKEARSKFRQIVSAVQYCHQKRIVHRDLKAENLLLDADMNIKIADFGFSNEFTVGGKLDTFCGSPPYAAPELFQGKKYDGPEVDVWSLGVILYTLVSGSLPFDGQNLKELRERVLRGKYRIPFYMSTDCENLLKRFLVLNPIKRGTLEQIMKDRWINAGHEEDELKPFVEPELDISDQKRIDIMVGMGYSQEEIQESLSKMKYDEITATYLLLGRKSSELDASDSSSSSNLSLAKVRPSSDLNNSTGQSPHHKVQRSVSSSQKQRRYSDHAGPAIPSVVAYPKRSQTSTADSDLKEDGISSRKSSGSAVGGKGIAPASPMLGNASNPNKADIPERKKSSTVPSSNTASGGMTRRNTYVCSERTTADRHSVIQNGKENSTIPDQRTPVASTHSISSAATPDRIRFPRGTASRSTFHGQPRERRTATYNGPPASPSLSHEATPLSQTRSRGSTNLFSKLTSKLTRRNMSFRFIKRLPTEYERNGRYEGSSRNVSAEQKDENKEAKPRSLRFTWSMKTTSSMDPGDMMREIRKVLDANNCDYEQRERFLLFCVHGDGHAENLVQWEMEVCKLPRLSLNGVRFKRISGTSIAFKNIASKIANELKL

- ΔTm MRLW5 (20) [1]: 0.7 °C
- ΔTm MRLW5 (20) [2]: 7.7 °C
- ΔTm MRLW5 (20) [3]: 7.7 °C
- ΔTm MRLW5 (20) [4]: 1.8 °C
- ΔTm MRLW5 (20) [5]: 2.3 °C
- ΔTm MRLW5 (20) [6]: 9.3 °C
SMILES: CNc1ncc2cc(-c3ccc(-c4cccc(C)n4)cc3Cl)c(=O)n(CCCCN)c2n1 [compound 20, MRLW5]

- ΔTm MR24 (24) [1]: 2.9 °C
- ΔTm MR24 (24) [2]: 5.0 °C
- ΔTm MR24 (24) [3]: 3.9 °C
- ΔTm MR24 (24) [4]: 1.0 °C
- ΔTm MR24 (24) [5]: 1.0 °C
- ΔTm MR24 (24) [6]: 5.8 °C
SMILES: Cc1cccc(-c2ccc(-c3cc4cnc(NC(CO)CO)nc4n(CCCCN)c3=O)c(Cl)c2)n1 [compound 24, 8-(4-Aminobutyl)-6-(2-chloro-4-(6-methylpyridin-2-yl)phenyl)-2-((1,3-dihydroxypropan-2-yl)amino)pyrido[2,3-d]pyrimidin-7(8H)-one]

- ΔTm 23 [1]: 1.7 °C
- ΔTm 23 [2]: 8.2 °C
- ΔTm 23 [3]: 9.3 °C
- ΔTm 23 [4]: 2.4 °C
- ΔTm 23 [5]: 3.7 °C
- ΔTm 23 [6]: 10.4 °C
SMILES: CNc1ncc2cc(-c3ccc(-c4cccc(C)n4)cc3Cl)c(=O)n(C[C@H]3CC[C@H](N)CC3)c2n1 [compound 23, 23]

- ΔTm 25 [1]: 7.5 °C
- ΔTm 25 [2]: 7.9 °C
- ΔTm 25 [3]: 6.9 °C
- ΔTm 25 [4]: 4.0 °C
- ΔTm 25 [5]: 2.0 °C
- ΔTm 25 [6]: 8.6 °C
SMILES: Cc1cccc(-c2ccc(-c3cc4cnc(NCCCc5ccc(N)cc5)nc4n(CCCCN)c3=O)c(Cl)c2)n1 [compound 25, 8-(4-Aminobutyl)-2-((3-(4-aminophenyl)propyl)amino)-6-(2-chloro-4-(6-methylpyridin-2-yl)phenyl)pyrido[2,3-d]pyrimidin-7(8H)-one]

- ΔTm MR26 (26) [1]: 5.1 °C
- ΔTm MR26 (26) [2]: 5.6 °C
- ΔTm MR26 (26) [3]: 3.6 °C
- ΔTm MR26 (26) [4]: 2.1 °C
- ΔTm MR26 (26) [5]: 0.8 °C
- ΔTm MR26 (26) [6]: 5.4 °C
SMILES: Cc1cccc(-c2ccc(-c3cc4cnc(NCCCN5CCOCC5)nc4n(CCCCN)c3=O)c(Cl)c2)n1 [compound 26, MR26]

- ΔTm 22 [1]: 2.7 °C
- ΔTm 22 [2]: 6.1 °C
- ΔTm 22 [3]: 9.7 °C
- ΔTm 22 [4]: 1.4 °C
- ΔTm 22 [5]: 4.6 °C
- ΔTm 22 [6]: 8.8 °C
SMILES: CNc1ncc2cc(-c3ccc(-c4cccc(C)n4)cc3Cl)c(=O)n(CCC3CCNCC3)c2n1 [compound 22, 6-(2-Chloro-4-(6-methylpyridin-2-yl)phenyl)-2-(methylamino)-8-(2-(piperidin-4-yl)ethyl)pyrido[2,3-d]pyrimidin-7(8H)-one]
